As a reminder, the Ki is the dissociation constant of the complex between target and ligand, obtained from inhibition or displacement.

Results on 1 compound are retold here after BindingDB's records for PubMed 8968358 (University of California, 1996).

This assay addresses Muscarinic acetylcholine receptor M3 (Rattus norvegicus, UniProt P08483).

Sequence of Muscarinic acetylcholine receptor M3 (P08483 whole entry): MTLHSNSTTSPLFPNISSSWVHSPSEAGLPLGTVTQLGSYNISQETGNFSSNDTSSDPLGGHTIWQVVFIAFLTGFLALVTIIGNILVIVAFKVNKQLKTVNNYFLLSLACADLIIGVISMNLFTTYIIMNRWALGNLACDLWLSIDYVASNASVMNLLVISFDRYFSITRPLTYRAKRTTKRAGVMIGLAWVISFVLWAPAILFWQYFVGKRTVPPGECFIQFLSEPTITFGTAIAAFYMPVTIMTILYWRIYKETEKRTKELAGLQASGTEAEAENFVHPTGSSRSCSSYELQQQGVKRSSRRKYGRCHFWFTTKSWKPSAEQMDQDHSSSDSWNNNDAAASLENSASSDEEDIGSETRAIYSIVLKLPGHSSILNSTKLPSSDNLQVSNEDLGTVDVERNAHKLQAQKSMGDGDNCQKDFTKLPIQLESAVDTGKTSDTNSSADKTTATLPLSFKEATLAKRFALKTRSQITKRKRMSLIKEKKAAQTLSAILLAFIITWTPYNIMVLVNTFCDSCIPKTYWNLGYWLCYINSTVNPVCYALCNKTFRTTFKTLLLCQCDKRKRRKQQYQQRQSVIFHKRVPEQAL

For `C[N+](C)(C)CC#CCN1CCCC1=O`, the Ki is 8.7 µM.
